Data taken from EP4112046A1, “PHARMACEUTICAL COMPOSITION AND USE THEREOF” (Alphala Co., Ltd., priority 2021, dated 2023).

Experiment: Solubility in buffers or solutions, LC-MS/MS
Assay type: physicochemical
Details: 3 mg/mL, 37°C, 24 hrs
Description: The test formulation was added into indicated buffers or solutions (ddH2O or 0.9% saline, pH 7.4) to the final concentration of 3 mg/mL, followed by sonicating for 30 mins. Next, the mixture was put into 37°C water bath for 24 hrs. The mixture was mixed well by vortex and 1 mL of mixture was transferred into the 1.5 mL eppendorf tube, followed by centrifuging at 20817 xg for 30 mins. 10 µL of the supernatant was collected, and the concentration of the collected supernatant was determined by LC-MS/MS.

## CCOC(=O)CCNC(=O)c1ccc(N[C@H](c2ccc(-c3nnc(-c4ccccc4)o3)cc2)C(C)C)cc1 [ALP001E]
H2O (pH7.0)
  Solubility (mg/ml): < LOQ
Saline (pH7.4)
  Solubility (mg/ml): < LOQ
